This note sets out measurements from a melting point compilation (Tetko et al.; mined from patent text by program, amines drawn as free bases though some values may be those of a salt).

As usually defined, the melting point is the temperature, or range, at which the solid turns liquid.

`Cc1c(-c2ccc(O)cc2)sc(C=O)c1-c1ccc(O)c(F)c1` registered a melting point of 223 to 226 °C.
`O=C(NCc1ccccc1Cl)Nc1ccc([N+](=O)[O-])cc1O`: the melting point was 199 to 200 °C.
For `C=CC(=O)OCCCCCCOc1ccc(C(=O)O)cc1` the value was 139 °C; for `Cc1ccc(CN2CCC(NC(=O)NC(=O)c3ccccc3)CC2)cc1C`, 239 to 240 °C; for `Nc1ccccc1-c1cc[nH]n1`, 122 to 123 °C.
As to `C#Cc1cccc(Oc2nc(Oc3cccc(C#C)c3)nc(-c3ccccc3)n2)c1`, the melting point fell in the range of 139 to 144 °C.
In turn, `O=C(c1cccs1)c1cnn2c(-c3cccc(-c4nnn(CCN5CCCCC5)n4)c3)ccnc12` registered a melting point of 117 °C.
`Cc1cc2ccccc2c(-c2cccc(I)c2)n1` registered a melting point of 77 to 78 °C.
As for `Nc1cnccc1CCCOc1cccnc1Oc1cccc(Cl)c1`, the figure is 140 to 142 °C.
In turn, `COc1ccc(CC(=NNS(=O)(=O)c2ccc(C)cc2)c2cc(OC)cc(OC)c2)cc1` yielded a melting point of 120 to 121 °C.
Regarding `CNC(=O)c1ccccc1Nc1nc(Nc2ccc3c(c2)C(C)(C)CCC(=O)N3)ncc1Cl`, the melting point is 295 °C.
Molecule `CC=C1C(=O)c2ccccc2OC1c1ccccc1` (stereo unspecified) yielded a melting point of 47 to 49 °C.
As for `CCOP(=O)(COCCC(CO)On1cnc2c(N)ncnc21)OCC` (stereo unspecified), the figure is 86 to 88 °C; as for `COc1ccc(-c2ccncc2)cc1-c1ccc(Oc2ccccc2)cc1`, 173 to 218 °C; as for `Cc1ccc(N2C(=O)C(O)=C(C(=O)c3ccc(C(C)C)cc3)C2c2ccc(N3CCOCC3)cc2)nn1` (stereo unspecified), 293 to 294 °C.
Molecule `Nc1ccc2c(c1)OCC(CN1CC=C(c3c[nH]c4ccc(F)cc34)CC1)O2` (stereo unspecified) registered a melting point of 172 to 174 °C.
Molecule `Cn1cncc1C(O)(c1ccc2c(c1)c(-c1cccc(Cl)c1)cc(=O)n2C)c1nccn1C` (stereo unspecified) had a melting point of 130 °C.
Regarding `Nc1nc(/C(=N/OCC(=O)OC(c2ccccc2)c2ccccc2)C(=O)Sc2nc3ccccc3s2)cs1`, the melting point turned out to be 152 °C.
`CCOc1c(SC(F)(F)F)c(C#N)nn1-c1c(Cl)cc(C(F)(F)F)cc1Cl` showed a melting point of 106 °C.
For `CC(C)c1cccc(C(C)C)c1OC(=O)c1ccccc1` the value was 80 to 81 °C; for `CC(C)(C)[Si](C)(C)Oc1ccc(NC(=O)CCCl)cc1`, 126 °C.
For `N#Cc1c(N2CCCCC2)cc(-c2ccc(-n3cccc3)cc2)c2c1Cc1ccccc1-2` the value was 224 to 226 °C; for `O=C(O)c1ccc2ccc(S)cc2c1`, 211 to 216 °C; for `C=CCOc1ccc(C=Cc2ccc([N+](=O)[O-])cc2)cc1`, 114 °C.
For `Cc1cccc(C(=O)COc2c(C(=O)c3ccc(Cl)c(C)c3Cl)c(C)nn2C)c1` the value was 153 °C; for `Nc1cc(Br)ccc1-c1ccc(F)cc1F`, 67 to 69 °C.
As for `O=c1ccn(-c2cccc(C(F)(F)F)c2)nc1-c1ccnn1-c1ccc(Cl)cc1`, the melting point fell in the range of 166 to 167 °C.
In the case of `CC[C@H](C)[C@H](OCc1ccccc1)[C@H]1[C@H]([N+](=O)[O-])[C@@H]([C@@H](OCc2ccccc2)C(C)C)N[C@@H]1C(=O)NCC(=O)O`, the melting point lay within 153 to 155 °C.
As for `O=C1CCC2=C1C(c1ccc(F)c(I)c1)C1=C(CCS1)N2` (stereo unspecified), the figure is over 250 °C.
With `Cn1cncc1C(O)(c1ccc(Cl)cc1)c1ccc2c(c1)C(c1cccc(Cl)c1)=NCC(=O)N2` (stereo unspecified), the melting point came to 200 °C.
As to `COCCN1CCN(CCc2ccc(Nc3ncc4c(n3)-c3ccccc3C(c3ccccc3C(F)(F)F)C4)cc2)CC1` (stereo unspecified), the melting point was 139 to 140 °C.
Turning to `COc1nc2cc(Cl)c(Cl)c(-c3nnnn3CCCO)c2nc1OC`, the melting point was in the range of 188 to 189 °C.
`Cc1cc(-n2cnn(Cc3ccc(C(F)(F)F)cc3)c2=O)sc1C(=O)NCc1cccnc1` returned a melting point of 176 to 178 °C.
For `CN(CCCNc1ccc(C#N)cc1)C1C2CCC1CN(Cc1ccccc1)C2` (stereo unspecified), the melting point is 91 to 93 °C.
For `CCc1cnc(-c2ccc(OC)cc2)c(-c2ccc(OC)cc2)n1` the value was 76.5 to 78 °C; for `CCOC(=O)c1cc2ccc(Oc3ccc([N+](=O)[O-])cc3)cc2oc1=O`, 163 °C; for `C=CC(C)(C)C(=O)C(Oc1ccc(Cl)cc1)n1cnnc1` (stereo unspecified), 124 to 126 °C.
As for `CCn1nc(-c2c(-c3ccccc3)nn3ccc(OC)cc23)ccc1=O`, the figure is 148 to 149 °C.
Consider `CCS(=O)c1ccc(N2CC(CNC(C)=S)OC2=O)cc1F` (stereo unspecified), for which the melting point lay within 138 to 139 °C.
Take `COc1cc2cnn(CCO)c(=O)c2cc1OC`: the melting point was in the range of 174 to 176 °C.
Regarding `CC1(C)C=Cc2c(ccc3c2C(=O)C(O)=CC3=O)O1`, the melting point came to 208 °C.
Turning to `CC(C)[N+]([O-])=Cc1cccc(N)c1`, the melting point was 103 to 106 °C.
Take `COc1ccc2c(c1)Cc1c([nH]cnc1=O)N2`: the melting point is over 300 °C.
Consider `CCCC(N)(CO)CCCc1ccc(Sc2cccc(OCc3ccccc3)c2)cc1Cl` (single isomer, unassigned; (+)), for which the melting point was in the range of 55 to 57 °C.
The molecule `Fc1ccc(Cn2c(NC3CCN(CCSc4ncccn4)CC3)nc3ccccc32)cc1` displayed a melting point of 146 to 148 °C.
Take `O=C1c2ccccc2C(=O)N1CCc1ccc(OC(F)(F)F)c(OC(F)(F)F)c1`: the melting point was 60 to 61 °C.
The molecule `CCOC(=O)C=C1CN=C(c2ccccc2F)c2cc(Cl)ccc2N1` showed a melting point of 109 to 111 °C.
`CC(c1ccc(O)cc1)(c1ccc(O)cc1)c1ccc(-c2ccccc2)cc1` showed a melting point of 182 to 183 °C.
The molecule `CCOc1ccc(NC(=O)NCCc2ccccn2)cc1` came in with a melting point of 163 to 164 °C.
The molecule `Cc1ccc(S(=O)(=O)C(CCl)Sc2cccc(C)c2)cc1` (stereo unspecified) returned a melting point of 80 to 97 °C.
`CN(C)CC1(c2cccc(C(F)(F)F)c2)CCN(C(=O)CN2CCN(c3ccccc3)CC2)CC1` had a melting point of 123 to 124 °C.
`COc1ccc(C2=NN(C3CCN(S(=O)(=O)c4ccc(Cl)cc4)CC3)C(=O)CC2)cc1OC` yielded a melting point of 185 to 186 °C.
With `CC1(C)CCCN(C(=O)[C@H]2C[C@H](C(=O)O)[C@@H](c3ccccc3F)N2C(=O)CNC(=O)Nc2cccc(CC(=O)O)c2)C1` (racemic), the melting point amounted to 173 °C.
`O=C([C@H]1CN(Cc2ccccc2)CCN1C(=O)NC1CCCCC1)N(CCCn1ccnc1)Cc1ccccc1` displayed a melting point of 89.1 °C.
`CCCOc1ccc(NC(C)=O)cc1C1=NC(=O)C2=NC=NC2=N1` yielded a melting point of 320 to 323 °C.
For `CSC1C(=O)CC2C3CCC4=CC(=O)C=CC4(C)C3(F)C(OC(C)=O)CC12C` (stereo unspecified), the melting point was in the range of 235 to 237 °C.
Take `NC(=O)c1nc2n(n1)-c1ccc(Cl)cc1C(c1ccccc1)=NC2`: the melting point lay within 252 to 254 °C.
As for `O=c1[nH]cnc2cc(Cl)sc12`, the figure is 238 to 239 °C.
`COC(=O)c1cc(I)cc2c1Nc1ccccc1C2`: the melting point was 148 to 150 °C.
As to `O=C1C2C3CCC(C3)C2C(=O)C1[N+](=O)[O-]` (stereo unspecified), the melting point was 167 °C.
Regarding `FC(F)(F)c1sc(S)nc1Cl`, the melting point was in the range of 142 to 144 °C.
As to `CC(=O)Nc1ccc(Oc2c([N+](=O)[O-])cc(C(=O)O)cc2S(N)(=O)=O)cc1`, the melting point is 305 °C.
For `COc1ccc(C(=O)Nc2c(C)c(C)c3c(c2C)C(c2ccc(C(C)C)cc2)C(C)(C)O3)cc1OC` (stereo unspecified) the value was 171 to 173 °C.
Regarding `N#CSc1ccc(C=O)cc1`, the melting point was in the range of 82 to 83 °C.
As for `Cc1ncnc(C)c1C(=O)N1CC2CN(CCC(NC(=O)C3CCCC3)c3ccccc3)CC2C1` (stereo unspecified), the figure is 48 to 49 °C; as for `CCCn1nc2c(N)nc3ccccc3c2c1CC(C)(C)NC(=O)NC(C)C`, 190 to 191 °C.
With `O=C(NCCc1ccccc1)c1cc2c(cn1)[nH]c1ccccc12`, the melting point was in the range of 297 to 298 °C.
As for `CC(C)(C)OC(=O)N[C@@H](Cc1ccc(NC(=O)OCC2c3ccccc3-c3ccccc32)cc1)C(=O)OCc1ccccc1`, the melting point was 186 to 187 °C.
As for `O=[N+]([O-])c1cc(-c2cnc3ccccn23)cc(O)c1O`, the figure is 110 °C; as for `CCCOc1ccc2[nH]c(C(=O)O)cc2c1`, 155 °C.
In turn, `CCOC(=O)c1ncn(-c2nncs2)c1N` had a melting point of 181 to 183 °C.
On to `CCCN1C(=O)COc2ccc(N3C(=O)C(C)=C(C)C3=O)cc21`, for which the melting point was 147 to 149 °C.
Take `CC(C)[C@H](NC(=O)OCc1ccccn1)C(=O)N[C@@H](Cc1ccccc1)[C@@H](O)[C@H](O)[C@H](Cc1ccccc1)NC(=O)[C@@H](NC(=O)OCc1ccccn1)C(C)C`: the melting point fell in the range of 220 to 223 °C.
Turning to `N#Cc1ccc2c(c1)C(=O)c1ccccc1CC2`, the melting point was in the range of 104 to 106 °C.
As to `c1cc(Cn2ccnc2)c2nccnc2c1`, the melting point is 121 °C.
`CCc1cc2c(cc1CC)C(=O)C(O)=CC2=O` displayed a melting point of 105 to 109 °C.
In turn, `COC(=O)c1ccoc1-c1cccc([N+](=O)[O-])c1` registered a melting point of 93 to 94 °C.
For `CS(=O)(=O)Nc1cccc(Nc2nc(OC3CCOC3)c3nc[nH]c3n2)c1` (stereo unspecified) the value was 255 to 257 °C; for `COC(=O)C1(C)Cc2c(OC)ccc(OC)c2CO1` (stereo unspecified), 73 to 74.5 °C; for `CC1=NN(C(=O)NS(=O)(=O)N(C)S(=O)(=O)N(C)C)C(c2cccs2)C1` (stereo unspecified), 112 to 113 °C.
Turning to `N#Cc1ccc(F)cc1-c1ccc(C(F)(F)F)cc1`, the melting point lay in the range of 106 to 107 °C.
Regarding `O=C(O)Cc1cccc2c(-c3ccc(F)cc3)onc12`, the melting point fell in the range of 170 to 171 °C.
Molecule `Nc1nc(Oc2ccc(O)cc2)nc2nc(-c3ccco3)nn12` displayed a melting point of 292 to 294 °C.
As for `CCCCOC(=O)N(C)C(CNC(=O)CC1CC(c2ccc(C#N)cc2)=NO1)C(=O)O` (stereo unspecified), the figure is 154 to 156 °C; as for `NC(=O)c1c(Cl)c(-c2ccccc2)n2c1CN(C(=O)Nc1cccc(C(=O)O)c1)CC2`, 263 to 265 °C; as for `O=C(Cn1cnc(-c2ccc(OCc3ccccc3)cc2)n1)c1ccc(F)cc1F`, 142 to 143 °C.
